The text below walks through data of patent publication US20260109699A1, “AZOLE DERIVATIVES AS SHP2 INHIBITORS” (IRBM S.P.A., priority 2022, published 2026).

In assay [1] the test system is phospho-ERK1/2 (Thr202/Tyr204). The assay is described as follows: Phospho-ERK cellular assay. The class given is cell-based. The following applies: Homo sapiens; KYSE-520 cells, 2 h at 37° C, TR-FRET; read-out: pERK IC50. The gist of the method:
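KYSE-520 cells treated overnight-after-plating with serially diluted compounds for 2 h at 37° C, then lysed. Phospho-ERK1/2 measured by TR-FRET after overnight antibody incubation at rt; inhibition normalized between DMSO (0%) and no-cell (100%) wells, IC50 from four-parameter logistic fit.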
A general note: Time-resolved FRET reads energy transfer from a long-lived donor to a nearby acceptor.

In assay [2] the target is T1, SHP-2 enzyme (Met1-Leu525), SHP2wt (Homo sapiens, UniProt Q06124).
T1 construct: synthetized by Origene, Met1-Leu525, cat #TP750155; purchased Origene TP750155
T1 sequence (Q06124 1-525): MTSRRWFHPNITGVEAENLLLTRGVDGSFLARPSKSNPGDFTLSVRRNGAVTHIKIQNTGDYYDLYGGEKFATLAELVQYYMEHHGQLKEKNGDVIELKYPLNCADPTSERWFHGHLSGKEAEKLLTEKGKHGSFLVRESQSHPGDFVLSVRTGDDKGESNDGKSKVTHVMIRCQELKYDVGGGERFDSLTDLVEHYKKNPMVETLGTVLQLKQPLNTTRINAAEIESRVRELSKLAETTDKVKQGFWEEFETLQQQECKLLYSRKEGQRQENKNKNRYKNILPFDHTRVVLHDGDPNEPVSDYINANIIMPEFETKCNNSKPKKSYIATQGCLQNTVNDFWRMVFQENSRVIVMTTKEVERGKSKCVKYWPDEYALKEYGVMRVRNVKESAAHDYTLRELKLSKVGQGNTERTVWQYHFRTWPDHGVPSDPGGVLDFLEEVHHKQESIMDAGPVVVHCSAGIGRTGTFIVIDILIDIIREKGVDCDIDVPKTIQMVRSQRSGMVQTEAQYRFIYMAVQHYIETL
Put plainly: SHP2 inhibition enzymatic assay. The class given is biochemical. Particulars: 0.5 nM SHP-2 activated by 500 nM IRS1 peptide, 75 μM DiFMUP substrate. The gist of the method: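 Human SHP2 (Met1-Leu525, 0.5 nM) activated by 500 nM bis-phosphorylated IRS1 peptide, pre-incubated 30 min with compound, then 75 μM DiFMUP for 30 min at rt in HEPES pH 7.2, NaCl/KCl, EDTA, Tween-20, 5 mM DTT. Reaction quenched with bpV, fluorescence read; IC50 by four-parameter logistic fit.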

Some results are limits rather than exact numbers.

For orientation: IC50 means the concentration at which inhibition is half-maximal.

In the case of `N[C@@H]1c2ccnn2CC12CCN(c1cnc(Oc3ccccc3F)cn1)CC2` [Example 78, (S)-1-(5-(2-fluorophenoxy)pyrazin-2-yl)-4′H,6′H-spiro[piperidine-4,5′-pyrrolo[1,2-b]pyrazol]-4′-amine], the IC50 is 100 to 500 nM in assay [1] and no more than 50 nM in assay [2].
For `N[C@@H]1c2ccnn2CC12CCN(c1cnc(Sc3ccc(C(F)(F)F)cc3)cn1)CC2` [Example 19, (S)-1-(5-((4-(trifluoromethyl)phenyl)thio)pyrazin-2-yl)-4′H,6′H-spiro[piperidine-4,5′-pyrrolo[1,2-b]pyrazol]-4′-amine] the same measures were 100 to 500 nM and no more than 50 nM.
Regarding `Cn1cnc2ccc(Sc3cnc(N4CCC5(CC4)Cn4nccc4[C@H]5N)cn3)cc21` [Example 65, (S)-1-(5-((1-methyl-1H-benzo[d]imidazol-6-yl)thio)pyrazin-2-yl)-4′H,6′H-spiro[piperidine-4,5′-pyrrolo[1,2-b]pyrazol]-4′-amine], the IC50 is less than 100 nM in assay [1] and no more than 50 nM in assay [2].
Consider `N[C@@H]1c2ccnn2CC12CCN(c1cnc(Sc3cccc4ncccc34)cn1)CC2` [Example 61, (S)-1-(5-(quinolin-5-ylthio)pyrazin-2-yl)-4′H,6′H-spiro[piperidine-4,5′-pyrrolo[1,2-b]pyrazol]-4′-amine], for which the values for the IC50 in assay [1] and in assay [2] were less than 100 nM and no more than 50 nM, respectively.
`Cn1cc2ccc(Sc3cnc(N4CCC5(CC4)Cn4nccc4[C@H]5N)cn3)c(F)c2n1` [Example 83, (S)-1-(5-((7-fluoro-2-methyl-2H-indazol-6-yl)thio)pyrazin-2-yl)-4′H,6′H-spiro[piperidine-4,5′-pyrrolo[1,2-b]pyrazol]-4′-amine]: the IC50 in assay [1] is less than 100 nM; in assay [2] it was no more than 50 nM.
For the compound `Cc1cc(Cl)ccc1Sc1cnc(N2CCC3(CC2)Cn2nccc2[C@H]3N)cn1` [Example 40, (S)-1-(5-((4-chloro-2-methylphenyl)thio)pyrazin-2-yl)-4′H,6′H-spiro[piperidine-4,5′-pyrrolo[1,2-b]pyrazol]-4′-amine], the figures for the IC50 in assay [1] and in assay [2] were 100 to 500 nM and no more than 50 nM, respectively.
Regarding `N[C@@H]1c2ccnn2CC12CCN(c1cnc3nc(-c4cccc(Cl)c4Cl)ccc3n1)CC2` [Example 9, (S)-1-(6-(2,3-dichlorophenyl)pyrido[2,3-b]pyrazin-2-yl)-4′H,6′H-spiro[piperidine-4,5′-pyrrolo[1,2-b]pyrazol]-4′-amine], the IC50 in assay [1] was greater than 500 nM; in assay [2], no more than 50 nM.
For `N[C@@H]1c2cccn2CC12CCN(c1cnc(Sc3cccc(Cl)c3Cl)cn1)CC2` [Example 28, (S)-1-(5-((2,3-dichlorophenyl)thio)pyrazin-2-yl)-1′H,3′H-spiro[piperidine-4,2′-pyrrolizin]-1′-amine], in that order: less than 100 nM and no more than 50 nM.
Consider `COc1cccc(Sc2cnc(N3CCC4(CC3)Cn3nccc3[C@H]4N)cn2)c1F` [Example 60, (S)-1-(5-((2-fluoro-3-methoxyphenyl)thio)pyrazin-2-yl)-4′H,6′H-spiro[piperidine-4,5′-pyrrolo[1,2-b]pyrazol]-4′-amine], for which the IC50 in assay [1] was less than 100 nM; in assay [2], no more than 50 nM.
In the case of `N[C@@H]1c2ccnn2CC12CCN(c1cnc(Sc3cccc(F)c3F)cn1)CC2` [Example 53, (S)-1-(5-((2,3-difluorophenyl)thio)pyrazin-2-yl)-4′H,6′H-spiro[piperidine-4,5′-pyrrolo[1,2-b]pyrazol]-4′-amine], the IC50 in assay [1] is less than 100 nM; in assay [2], no more than 50 nM.
For the compound `N[C@@H]1c2ccnn2CC12CCN(c1cnc(Oc3ccc(F)cc3)cn1)CC2` [Example 7, (S)-1-(5-(4-fluorophenoxy)pyrazin-2-yl)-4′H,6′H-spiro[piperidine-4,5′-pyrrolo[1,2-b]pyrazol]-4′-amine], the results for the IC50 in assay [1] and in assay [2] were less than 100 nM and no more than 50 nM, respectively.
As for `N[C@@H]1c2ccnn2CC12CCN(c1cnc(Sc3ccc(C(F)F)cc3F)cn1)CC2` [Example 59, (S)-1-(5-((4-(difluoromethyl)-2-fluorophenyl)thio)pyrazin-2-yl)-4′H,6′H-spiro[piperidine-4,5′-pyrrolo[1,2-b]pyrazol]-4′-amine], the IC50 in assay [1] was 100 to 500 nM; in assay [2], no more than 50 nM.
For the compound `N[C@@H]1c2ccnn2CC12CCN(c1cnc(Sc3ccc(OC(F)(F)F)cc3)cn1)CC2` [Example 18, (S)-1-(5-((4-(trifluoromethoxy)phenyl)thio)pyrazin-2-yl)-4′H,6′H-spiro[piperidine-4,5′-pyrrolo[1,2-b]pyrazol]-4′-amine], the values for the IC50 in assay [1] and in assay [2] were 100 to 500 nM and no more than 50 nM, respectively.
As to `N[C@@H]1c2ccnn2CC12CCN(c1cnc(Sc3ccc(F)c4ncccc34)cn1)CC2` [Example 68, (S)-1-(5-((8-fluoroquinolin-5-yl)thio)pyrazin-2-yl)-4′H,6′H-spiro[piperidine-4,5′-pyrrolo[1,2-b]pyrazol]-4′-amine], the IC50 in assay [1] is less than 100 nM; in assay [2], no more than 50 nM.
Turning to `CC(C)c1ccccc1Sc1cnc(N2CCC3(CC2)Cn2nccc2[C@H]3N)cn1` [Example 27, (S)-1-(5-((2-isopropylphenyl)thio)pyrazin-2-yl)-4′H,6′H-spiro[piperidine-4,5′-pyrrolo[1,2-b]pyrazol]-4′-amine], the values for the IC50 in assay [1] and in assay [2] were less than 100 nM and no more than 50 nM, respectively.
For `N[C@@H]1c2ccnn2CC12CCN(c1cnc(Sc3ccc(C(F)(F)F)c4ncccc34)cn1)CC2` [Example 67, (S)-1-(5-((8-(trifluoromethyl)quinolin-5-yl)thio)pyrazin-2-yl)-4′H,6′H-spiro[piperidine-4,5′-pyrrolo[1,2-b]pyrazol]-4′-amine], the figures for the IC50 in assay [1] and in assay [2] were less than 100 nM and no more than 50 nM, respectively.
In the case of `N[C@@H]1c2ccnn2CC12CCN(c1cnc(Sc3cc(F)c(F)cc3F)cn1)CC2` [Example 77, (S)-1-(5-((2,4,5-trifluorophenyl)thio)pyrazin-2-yl)-4′H,6′H-spiro[piperidine-4,5′-pyrrolo[1,2-b]pyrazol]-4′-amine], the IC50 in assay [1] is 100 to 500 nM; in assay [2], no more than 50 nM.
On to `N[C@@H]1c2ccnn2CC12CCN(c1cnc3nc(-c4cccc(F)c4F)ccc3n1)CC2` [Example 8, (S)-1-(6-(2,3-difluorophenyl)pyrido[2,3-b]pyrazin-2-yl)-4′H,6′H-spiro[piperidine-4,5′-pyrrolo[1,2-b]pyrazol]-4′-amine], for which the 50% inhibitory concentration (IC50) in assay [1] is greater than 500 nM; in assay [2], no more than 50 nM.
Take `N[C@@H]1c2ccnn2CC12CCN(c1cnc(Sc3ccncc3)cn1)CC2` [Example 25, (S)-1-(5-(pyridin-4-ylthio)pyrazin-2-yl)-4′H,6′H-spiro[piperidine-4,5′-pyrrolo[1,2-b]pyrazol]-4′-amine]: the half-maximal inhibitory concentration (IC50) in assay [1] is less than 100 nM; in assay [2], no more than 50 nM.
On to `N[C@@H]1c2ccnn2CC12CCN(c1cnc(Sc3ccc(Cl)c4ncccc34)cn1)CC2` [Example 70, (S)-1-(5-((8-chloroquinolin-5-yl)thio)pyrazin-2-yl)-4′H,6′H-spiro[piperidine-4,5′-pyrrolo[1,2-b]pyrazol]-4′-amine], for which the results for the IC50 in assay [1] and in assay [2] were less than 100 nM and no more than 50 nM, respectively.
For the compound `Cc1c(F)cccc1Sc1cnc(N2CCC3(CC2)Cn2nccc2[C@H]3N)cn1` [Example 57, (S)-1-(5-((3-fluoro-2-methylphenyl)thio)pyrazin-2-yl)-4′H,6′H-spiro[piperidine-4,5′-pyrrolo[1,2-b]pyrazol]-4′-amine], the results for the IC50 in assay [1] and in assay [2] were less than 100 nM and no more than 50 nM, respectively.
With `N[C@@H]1c2ccnn2CC12CCN(c1cnc(Sc3ccccc3C(F)(F)F)cn1)CC2` [Example 41, (S)-1-(5-((2-(trifluoromethyl)phenyl)thio)pyrazin-2-yl)-4′H,6′H-spiro[piperidine-4,5′-pyrrolo[1,2-b]pyrazol]-4′-amine], the IC50 in assay [1] was less than 100 nM; in assay [2] it was no more than 50 nM.
Consider `COc1cccc2c(Sc3cnc(N4CCC5(CC4)Cn4nccc4[C@H]5N)cn3)ccnc12` [Example 37, (S)-1-(5-((8-methoxyquinolin-4-yl)thio)pyrazin-2-yl)-4′H,6′H-spiro[piperidine-4,5′-pyrrolo[1,2-b]pyrazol]-4′-amine], for which the IC50 was less than 100 nM in assay [1] and no more than 50 nM in assay [2].
For the compound `N[C@@H]1c2ccnn2CC12CCN(c1cnc(Sc3cccc(C4CC4)c3F)cn1)CC2` [Example 69, (S)-1-(5-((3-cyclopropyl-2-fluorophenyl)thio)pyrazin-2-yl)-4′H,6′H-spiro[piperidine-4,5′-pyrrolo[1,2-b]pyrazol]-4′-amine], the IC50 is less than 100 nM in assay [1] and no more than 50 nM in assay [2].
